Assay results taken from ChEMBL document CHEMBL1137881, “Synthesis of acyloxymethyl ester prodrugs of the transferable protein farnesyl transferase substrate farnesyl methylenediphosphonate” (Bioorg Med Chem Lett, 2004).

Assays:
Type in all cases: protein-complex assay
[1] = tested on: CC(C)=CCC/C(C)=C/CC/C(C)=C/COP(=O)(O)OP(=O)(O)O; experiment: (§1) Michaelis-Menten constant against Farnesyltransferase
[2] = tested on: CC(C)=CCC/C(C)=C/CC/C(C)=C/COP(=O)(O)CP(=O)(O)O; experiment: as §1
[3] = biological target: T1, Protein farnesyltransferase (Homo sapiens) (UniProt P49354+P49356); experiment: Ratio of Kcat to Km for farnesyltransferase
[4] = biological target: T1, Protein farnesyltransferase (Homo sapiens); experiment: Catalytic constant against Farnesyltransferase

Row | Ratio [3] | K cat [4] | Compound | Km [1] | Km [2]
1 |  |  | Protein farnesyltransferase (Homo sapiens) (from UniProt P49354+P49356) | 0.04 µM | 0.18 µM
2 | 2e+06 M⁻¹ s⁻¹ | 0.09 s⁻¹ | CC(C)=CCC/C(C)=C/CC/C(C)=C/COP(=O)(O)OP(=O)(O)O |  | 
3 | 300000 M⁻¹ s⁻¹ | 0.06 s⁻¹ | CC(C)=CCC/C(C)=C/CC/C(C)=C/COP(=O)(O)CP(=O)(O)O |  | 
